Test results from publication PMC9110766, “Structure-Based Design of 2-Aminopurine Derivatives as CDK2 Inhibitors for Triple-Negative Breast Cancer” (Frontiers in Pharmacology, 2022).
Read-outs that look alike come from different tables or passages of the source.

Key:
[1] = target: CDK2/cyclin A (Homo sapiens, UniProt P24941); test: CDK2 inhibition, Kinase-Glo Luminescent Kinase Assay; type: biochemical; settings: geometric means of n ⩾ 3 experiments; 10 µM ATP; read-out: IC50 against CDK2
Description: The IC50 values were calculated using Prism GraphPad software.

[2] = target: CDK1/cyclin B (Homo sapiens, UniProt P06493); test: CDK1 inhibition, Kinase-Glo Luminescent Kinase Assay; type: biochemical; settings: for selectivity for CDK2 over CDK1: ratio of IC50 values
Sequence of CDK1/cyclin B (P06493 whole entry): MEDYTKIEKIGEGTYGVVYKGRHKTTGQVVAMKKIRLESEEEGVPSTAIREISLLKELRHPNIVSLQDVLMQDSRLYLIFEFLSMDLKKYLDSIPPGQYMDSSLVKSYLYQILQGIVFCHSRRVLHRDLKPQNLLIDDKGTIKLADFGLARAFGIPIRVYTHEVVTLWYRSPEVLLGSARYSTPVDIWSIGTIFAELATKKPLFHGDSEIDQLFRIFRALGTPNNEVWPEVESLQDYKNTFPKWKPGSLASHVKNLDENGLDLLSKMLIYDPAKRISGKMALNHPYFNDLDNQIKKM
Sequence of CDK1/cyclin B (P14635 whole entry partner): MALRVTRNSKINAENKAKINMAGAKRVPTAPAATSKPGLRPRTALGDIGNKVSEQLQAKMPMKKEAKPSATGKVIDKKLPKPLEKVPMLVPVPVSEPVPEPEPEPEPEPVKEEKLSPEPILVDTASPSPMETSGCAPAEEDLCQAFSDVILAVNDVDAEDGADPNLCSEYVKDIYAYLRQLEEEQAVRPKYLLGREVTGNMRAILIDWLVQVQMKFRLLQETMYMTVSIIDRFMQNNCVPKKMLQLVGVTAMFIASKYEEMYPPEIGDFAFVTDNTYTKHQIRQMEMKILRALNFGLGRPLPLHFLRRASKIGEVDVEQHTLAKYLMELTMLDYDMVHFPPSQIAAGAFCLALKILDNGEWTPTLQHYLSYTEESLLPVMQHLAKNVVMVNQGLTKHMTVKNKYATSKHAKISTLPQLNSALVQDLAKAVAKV
Description: (§1) Experiments were carried out using the Kinase-Glo® Luminescent Kinase Assays as described previously ([Kashem et al., 2007]). Briefly, all enzymatic reactions were conducted at 30°C for 40 min. The 50 µl reaction mixture contains 40 mM Tris, pH 7.4, 10 mM MgCl2, 0.1 mg/ml BSA, 1 mM DTT, 10 µM ATP, 0.2 μg/ml CDKs, and 100 μM lipid substrate. The compounds were diluted with 10% DMSO and then 5 µl of the dilution was removed and put into the subsequent reaction. The kinase activities were measured by detecting the content of remaining ATP. The luminescent signal was correlated with the amount of residual ATP and negatively correlated with the amount of kinase activity. The IC50 values were calculated using Prism GraphPad software.

[3] = target: CDK6/cyclin D3 (Homo sapiens, UniProt Q00534); test: CDK6 inhibition, Kinase-Glo Luminescent Kinase Assay; type: biochemical; settings: for selectivity for CDK2 over CDK6: ratio of IC50 values
Sequence of CDK6/cyclin D3 (Q00534 whole entry): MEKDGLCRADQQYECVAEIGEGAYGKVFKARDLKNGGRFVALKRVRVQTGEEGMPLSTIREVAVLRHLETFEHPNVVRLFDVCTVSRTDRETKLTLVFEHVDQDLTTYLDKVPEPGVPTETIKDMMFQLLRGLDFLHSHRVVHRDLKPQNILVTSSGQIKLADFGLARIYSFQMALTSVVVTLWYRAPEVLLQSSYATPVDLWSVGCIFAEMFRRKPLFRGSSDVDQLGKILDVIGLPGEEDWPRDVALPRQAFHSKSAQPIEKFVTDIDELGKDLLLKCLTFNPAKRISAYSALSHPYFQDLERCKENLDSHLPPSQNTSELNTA
Sequence of CDK6/cyclin D3 (P30281 whole entry partner): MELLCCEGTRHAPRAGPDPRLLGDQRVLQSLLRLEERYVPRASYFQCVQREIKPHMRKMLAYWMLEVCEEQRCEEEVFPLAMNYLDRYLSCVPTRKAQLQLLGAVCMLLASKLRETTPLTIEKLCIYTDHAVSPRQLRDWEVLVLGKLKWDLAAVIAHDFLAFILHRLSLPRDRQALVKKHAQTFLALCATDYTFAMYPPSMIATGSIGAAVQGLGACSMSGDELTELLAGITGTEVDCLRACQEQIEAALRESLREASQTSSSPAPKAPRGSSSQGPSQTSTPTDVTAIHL
Description: as §1

[4] = target: CDK8/cyclin C (Homo sapiens, UniProt P49336); test: CDK8 inhibition, Kinase-Glo Luminescent Kinase Assay; type: biochemical; settings: for selectivity for CDK2 over CDK8: CDK8 inhibition <20% @ 5 μM; for CDK8/cyclin C Inhibition rate @5 μM (%) / inhibition at 5 µM: compound at 5 μM; for inhibition at 5 µM: read-out: CDK8/cyclin C Inhibition rate @5 μM (%)
Sequence of CDK8/cyclin C (P49336 whole entry): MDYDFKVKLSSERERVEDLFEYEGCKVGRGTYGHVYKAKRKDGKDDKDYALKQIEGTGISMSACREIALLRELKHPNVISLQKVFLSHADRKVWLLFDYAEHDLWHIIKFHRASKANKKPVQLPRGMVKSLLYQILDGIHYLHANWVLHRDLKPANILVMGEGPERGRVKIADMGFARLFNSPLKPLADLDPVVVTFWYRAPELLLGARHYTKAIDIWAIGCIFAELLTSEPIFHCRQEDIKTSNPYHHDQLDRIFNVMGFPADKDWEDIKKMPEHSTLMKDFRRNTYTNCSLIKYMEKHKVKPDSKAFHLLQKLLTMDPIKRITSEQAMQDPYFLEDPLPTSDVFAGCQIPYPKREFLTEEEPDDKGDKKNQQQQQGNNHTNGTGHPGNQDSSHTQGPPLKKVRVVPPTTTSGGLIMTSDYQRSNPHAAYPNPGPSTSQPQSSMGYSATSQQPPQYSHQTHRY
Sequence of CDK8/cyclin C (P24863 whole entry partner): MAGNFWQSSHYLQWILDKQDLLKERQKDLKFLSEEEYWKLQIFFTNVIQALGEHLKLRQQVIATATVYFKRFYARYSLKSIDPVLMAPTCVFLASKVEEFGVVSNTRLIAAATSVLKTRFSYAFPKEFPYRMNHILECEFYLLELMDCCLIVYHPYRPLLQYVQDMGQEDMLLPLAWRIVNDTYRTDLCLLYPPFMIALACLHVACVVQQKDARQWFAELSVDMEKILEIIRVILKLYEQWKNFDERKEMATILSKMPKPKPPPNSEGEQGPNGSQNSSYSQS
Description: as §1

[5] = tested on: MDA-MB-231 cells; test: Anti-proliferation test (MTT); type: cell-based; settings: Homo sapiens, 48 h
[6] = Cytotoxicity (MTT) in human embryonic kidney cells; type: cell-based; settings: 293T cells
Description: Standard MTT (thiazolyl blue; 3-[4,5-dimethylthiazol-2-yl]-2,5-diphenyltetrazolium bromide) assays were performed as 5 mg/ml. Briefly, MDA-MB-231 or 293T cells were seeded into 96-well plates and incubated for 24 h at 37°C. All compounds were dissolved in DMSO, and a gradient dilution series were prepared in 100 μl of cell medium, added to cells (in triplicates), and incubated for 48 h at 37°C with 5% CO2. MTT was added (5 mg/ml, 20 μl) to each plate and these mixtures were incubated for another 4 h. Then, the medium was removed, and the mixture was completely dissolved in DMSO (200 μL) after shaking for 10 min.

[7] = tested on: MDA-MB-231 cells; test: Cell cycle analysis (PI staining, flow cytometry); type: cell-based, human; settings: 20 μM, 24 h, compared with negative control group
Description: MDA-MB-231 cells were seeded in six-well plates and incubated with 20 μM compounds 11c, 11l, 11p, and vehicle (0.2% DMSO) for 24 h. Subsequently, cells were centrifugated and washed with cold PBS buffer. After the centrifugation, the supernatants were removed, and the cells were resuspended in PBS buffer. Then, 10 μl of PI were added and the cells were incubated in the dark for 15 min at room temperature. The stained cells were analyzed by a flow cytometer (BD Accuri C6).

[8] = tested on: CDK4/D3; design: method as in Fry et al., 2004; settings: ref Fry et al., 2004; cited from earlier work
[9] = tested on: CDK4/D1; design: method as in Fry et al., 2004; settings: ref Fry et al., 2004; cited from earlier work
[10] = tested on: CDK6/D2; design: method as in Fry et al., 2004; settings: ref Fry et al., 2004; cited from earlier work
[11] = tested on: CDK2/A; settings: cited from earlier work
[12] = tested on: CDK1/B; settings: cited from earlier work

Compound | IC50 [1] | IC50 [2] | selectivity for CDK2 over CDK1 [2] | IC50 [3] | selectivity for CDK2 over CDK6 [3] | selectivity for CDK2 over CDK8 [4] | CDK8/cyclin C Inhibition rate @5 μM (%) [4] | inhibition at 5 µM [4] | IC50 [5] | IC50 at 48 h [6] | effect on cell cycle (percentage of cells in G2/M phase) [7] | IC50 [8] | IC50 [9] | IC50 [10] | melting point | IC50 ([11]; ref Wang et al., 2013) | IC50 ([12]; ref Wang et al., 2013) | IC50 ([11]; ref Coxon et al., 2017) | IC50 ([12]; ref Coxon et al., 2017)
Cl.NCc1cccc(-c2nc(Nc3ccc(S(N)(=O)=O)cc3)nc3[nH]cnc23)c1 [Compound 11l, 4-((6-(3-(aminomethyl)phenyl)-9H-purin-2-yl)amino)benzenesulfonamide hydrochloride] | 19 ± 1 nM | 120 ± 20 nM | 4.6 to 6.3 fold | 2700 ± 500 nM | more than 140 fold | more than 140 fold | 11% | < 20% | 8110 to 15700 nM | > 100000 nM | increased the percentage of cells in the G2/M phase |  |  |  |  |  |  |  | 
CC(=O)c1c(C)c2cnc(Nc3ccc(N4CCNCC4)cn3)nc2n(C2CCCC2)c1=O [Palbociclib] |  |  |  |  |  |  |  |  |  |  |  | […] | […] | 15 nM |  |  |  |  | 
Cl.Nc1cccc(-c2nc(Nc3cccc([N+](=O)[O-])c3)nc3[nH]cnc23)c1 [Compound 11a, 6-(3-aminophenyl)-N-(3-nitrophenyl)-9H-purin-2-amine hydrochloride] | 310 ± 20 nM |  |  |  |  |  |  |  |  |  |  |  |  |  | > 300 °C | 23 nM | 350 nM |  | 
CNS(=O)(=O)c1ccc(Nc2nc(-c3cccc(CN)c3)c3nc[nH]c3n2)cc1.Cl [Compound 11p, 4-((6-(3-(aminomethyl)phenyl)-9H-purin-2-yl)amino)-N-methylbenzenesulfonamide hydrochloride] | 32 ± 1 nM | 150 ± 20 nM | 4.6 to 6.3 fold | 4800 ± 100 nM | more than 140 fold | more than 140 fold | 15% | < 20% | 8110 to 15700 nM |  | increased the percentage of cells in the G2/M phase |  |  |  | > 300 °C |  |  |  | 
NS(=O)(=O)c1ccc(Nc2nc(-c3cccc(-c4ccccc4)c3)c3nc[nH]c3n2)cc1 [compound 73, reference compound] |  |  |  |  |  |  |  |  |  |  |  |  |  |  |  |  |  | 44 nM | 86000 nM
Cl.NCc1cccc(-c2nc(Nc3cccc([N+](=O)[O-])c3)nc3[nH]cnc23)c1 [Compound 11c, 6-(3-(aminomethyl)phenyl)-N-(3-nitrophenyl)-9H-purin-2-amine hydrochloride] | 110 ± 10 nM | 240 ± 40 nM | 2 fold | 2200 ± 100 nM | 18 fold | more than 42 fold | 19% | < 20% | 8110 to 15700 nM |  | increased the percentage of cells in the G2/M phase |  |  |  | 236 to 238 °C |  |  |  | 
